# Experimental data: EPA's ToxRefDB 2
# Legend:
# [1] = test system: rat; details: Subchronic oral toxicity in rodents, fischer, Feed, dose end: 13 week, group: systemic, systemic / clinical chemistry / cholesterol / cholesterol + systemic / clinical chemistry / protein / protein + systemic / clinical …
# [2] = test system: rat; details: Developmental neurotoxicity study, sprague dawley, Oral, Gavage/Intubation, dose end: 70 PND, group: cannot be grouped
# [3] = test system: rat; details: Developmental neurotoxicity study; sprague dawley; Oral; Gavage/Intubation; dose end: 57 PND; group: cannot be grouped; reproductive / offspring survival early / birth index / birth index + systemic / in life observation / body weight / body weight + …
# [4] = test system: rat; details: Subchronic oral toxicity in rodents, fischer, Feed, dose end: 13 week, group: systemic
# [5] = test system: mouse; details: Developmental neurotoxicity study, other, Oral, Gavage/Intubation, dose end: 21 PND, group: cannot be grouped
# [6] = test system: mouse; details: Subchronic oral toxicity in rodents, b6c3f1, Feed, dose end: 13 week, group: systemic
# [7] = test system: mouse; details: Subchronic oral toxicity in rodents, b6c3f1, Feed, dose end: 13 week, group: systemic, systemic / in life observation / body weight / body weight + systemic / in life observation / body weight / body weight gain
# [8] = test system: rat; details: Developmental neurotoxicity study; sprague dawley; Oral; Gavage/Intubation; dose end: 112 PND; group: cannot be grouped; systemic / organ weight / brain / absolute
# [9] = test system: rat; details: Subchronic oral toxicity in rodents, fischer, Feed, dose end: 13 week, group: systemic; remark: listed apart in the source
# [10] = test system: rat; details: Combined chronic toxicity/carcinogenicity, fischer, Oral, Feed, dose end: 2 year, group: systemic
# [11] = test system: rat; details: Developmental neurotoxicity study, sprague dawley, Oral, Gavage/Intubation, dose end: 90 PND, group: cannot be grouped
# [12] = test system: dog; details: Chronic toxicity, beagle, Oral, Feed, dose end: 52 week
# [13] = test system: rat; details: Prenatal developmental toxicity study, sprague dawley, Oral, Gavage/Intubation, dose end: 15 GD
# [14] = test system: rat; details: Subchronic oral toxicity in rodents, sprague dawley, Feed, dose end: 90 day, group: cholinesterase, cholinesterase / cholinesterase / cholinesterase / brain cholinesterase (che)
# [15] = test system: rat; details: Combined chronic toxicity/carcinogenicity, sprague dawley, Oral, Feed, dose end: 28 month
# [16] = systemic / in life observation / body weight / body weight + systemic / in life observation / body weight / body weight gain
# [17] = systemic / in life observation / body weight / body weight + systemic / in life observation / body weight / body weight gain + developmental…
# [18] = systemic / in life observation / body weight / body weight + systemic / in life observation / body weight / body weight gain + systemic / …
# [19] = developmental / offspring survival late / [other] / [other] + systemic / in life observation / clinical signs / ataxia + systemic / in life …
# [20] = systemic / in life observation / clinical signs / head tilt
# [21] = systemic / in life observation / body weight / body weight + systemic / in life observation / body weight / body weight gain + systemic / in…
# [22] = systemic / in life observation / body weight / body weight
# [23] = systemic / in life observation / body weight / body weight + systemic / organ weight / liver / absolute
# [24] = systemic / in life observation / body weight / body weight + developmental / offspring survival late / [other] / [other] + systemic / in …
# [25] = group: cholinesterase, cholinesterase / cholinesterase / cholinesterase / brain cholinesterase (che)
# [26] = group: systemic, systemic / hematology / erythrocyte (rbc) count differential / erythrocyte (rbc) + systemic / hematology / hematocrit (hct) / hematocrit (…
# [27] = group: developmental, developmental / developmental malformation / bone / ossification sites
# [28] = group: maternal, systemic / in life observation / body weight / body weight + systemic / in life observation / body weight / body weight gain + systemic / in…
# [29] = group: cholinesterase, cholinesterase / cholinesterase / cholinesterase / brain cholinesterase (che) + cholinesterase / cholinesterase / cholinesterase / …
# [30] = group: systemic, systemic / pathology microscopic / adrenal gland / pheochromocytoma benign + systemic / in life observation / clinical signs / aggressive …
structure (smiles),measurement,setting,value
"O=C1NC(=O)C(c2ccccc2)(c2ccccc2)N1 [5,5-Diphenylhydantoin]",LEL,[1],50 mg/kg/day
same,LOAEL,[1],> 100 mg/kg/day
same,NEL,[1],25 mg/kg/day
same,NOAEL,[1],≥ 100 mg/kg/day
same,NEL,[2]; [16],150 mg/kg/day
same,LEL,[2]; [17],200 mg/kg/day
same,LOAEL,[2]; [17],> 200 mg/kg/day
same,NOAEL,[2]; [17],≥ 200 mg/kg/day
same,LEL,[3],200 mg/kg/day
same,LOAEL,[3],> 200 mg/kg/day
same,NEL,[3],< 200 mg/kg/day
same,NOAEL,[3],≥ 200 mg/kg/day
same,LEL,[4]; [16],122 mg/kg/day
same,LOAEL,[4]; [18],234 mg/kg/day
same,NEL,[4]; [18],60.7 mg/kg/day
same,NOAEL,[4]; [18],122 mg/kg/day
same,LOAEL,[5]; [19],> 35 mg/kg/day
same,NOAEL,[5]; [19],≥ 35 mg/kg/day
same,LEL,[5]; [20],10 mg/kg/day
same,NEL,[5]; [20],< 10 mg/kg/day
same,LEL,[6]; [16],11.2 mg/kg/day
same,NEL,[6]; [16],< 11.2 mg/kg/day
same,LOAEL,[6]; [18],90 mg/kg/day
same,NOAEL,[6]; systemic / pathology microscopic / liver / hypertrophy + systemic / in life observation / mortality / mortality,45 mg/kg/day
same,LEL,[7],20.5 mg/kg/day
same,LOAEL,[7],20.5 mg/kg/day
same,NEL,[7],< 20.5 mg/kg/day
same,NOAEL,[7],< 20.5 mg/kg/day
same,LEL,[8],100 mg/kg/day
same,LOAEL,[8],> 100 mg/kg/day
same,NEL,[8],50 mg/kg/day
same,NOAEL,[8],≥ 100 mg/kg/day
same,LEL,[9]; [16],122 mg/kg/day
same,LOAEL,[9]; [16],122 mg/kg/day
same,NEL,[9]; [21],60.7 mg/kg/day
same,NOAEL,[9]; [21],60.7 mg/kg/day
same,NEL,[10]; [22],12.5 mg/kg/day
same,LEL,[10]; [23],25 mg/kg/day
same,LOAEL,[10]; [23],> 25 mg/kg/day
same,NOAEL,[10]; [23],≥ 25 mg/kg/day
same,LEL,[11]; [22],100 mg/kg/day
same,NEL,[11]; [22],< 100 mg/kg/day
same,LOAEL,[11]; [24],> 200 mg/kg/day
same,NOAEL,[11]; [24],≥ 200 mg/kg/day
COP(=O)(NC(C)=O)SC (configuration not stated) [Acephate],LEL,[12]; [25],0.27 mg/kg/day
same,LOAEL,[12]; [25],0.27 mg/kg/day
same,NEL,[12]; [25],< 0.27 mg/kg/day
same,NOAEL,[12]; [25],< 0.27 mg/kg/day
same,LEL,[12]; [26],20.2 mg/kg/day
same,LOAEL,[12]; [26],20.2 mg/kg/day
same,NEL,[12]; [26],3.11 mg/kg/day
same,NOAEL,[12]; [26],3.11 mg/kg/day
same,LEL,[13]; [27],75 mg/kg/day
same,LOAEL,[13]; [27],75 mg/kg/day
same,NEL,[13]; [27],20 mg/kg/day
same,NOAEL,[13]; [27],20 mg/kg/day
same,LEL,[13]; [28],20 mg/kg/day
same,LOAEL,[13]; [28],20 mg/kg/day
same,NEL,[13]; [28],5 mg/kg/day
same,NOAEL,[13]; [28],5 mg/kg/day
same,LEL,[14],0.12 mg/kg/day
same,LOAEL,[14],0.12 mg/kg/day
same,NEL,[14],< 0.12 mg/kg/day
same,NOAEL,[14],< 0.12 mg/kg/day
same,LEL,[15]; [29],0.25 mg/kg/day
same,LOAEL,[15]; [29],35 mg/kg/day
same,NEL,[15]; [29],< 0.25 mg/kg/day
same,NOAEL,[15]; [29],2.5 mg/kg/day
same,LEL,[15]; [30],0.25 mg/kg/day
same,LOAEL,[15]; [30],> 35 mg/kg/day
same,NEL,[15]; [30],< 0.25 mg/kg/day
same,NOAEL,[15]; [30],≥ 35 mg/kg/day
